# Test results: patent US9636317B2, “Compositions and methods of use of phorbol esters” (priority 2007, dated 2017)
# “And” between values parts separate entries of the source, which are not always exact repeats. Identical values can stand only once. “Also recorded” adds a separate entry of the source. Like-named read-outs stand apart in the source and are kept apart here.
# Legend:
# [1] = Third clinical study of HIV+ patients: periphery blood profile; assay type: in vivo, human; conditions: one value per patient
# Protocol: (§1) Each patient in the study received 150 μg of TPA in 200 ml of sterile saline by intravenous infusion over a 1.5 to 2 hour period daily for 60 days for a total administered dose of 9.0 mg. Following completion of the 60 days of TPA therapy, these patients remained under observation for an additional 60 days though the received no further treatment.
# CD3, CD4 and CD8 levels in peripheral blood were quantitated prior to starting treatment, and again at 30 and 60 days using flow cytometry and the appropriate antibodies obtained from B.D. Bioscience, San Diego, Calif. Viral load was determined using conventional methods at Kuang Ann men Hospital, Beijing, China. Patients RBC, WBC, platelets and hemoglobin levels were also measured. […]
# [2] = Treatment of Parkinson's disease (patient case); assay type: in vivo, human; conditions: 0.19, 0.24, 0.26 mg TPA every other day over 9 weeks
# Protocol: (§2) Patient two was diagnosed with Parkinson's disease. They were injected with 1 ampoule containing 0.19 mg of TPA (0.125 mg/m^2) TPA every other day for four weeks, then 0.24 mg of TPA (1.25×0.125 mg/m^2) every other day for 2 weeks, and 0.26 mg of TPA (1.5×0.125 mg/m^2) every other day for an additional 3 weeks.
# [3] = Treatment of urinary incontinence (patient cases); assay type: in vivo, human
# Excerpt: Patient twelve has suffered from urinary incontinence for more than 30 years.
# Patient one has suffered from urinary incontinence for fifteen years.
# [4] = Treatment of individuals who have suffered a stroke (patient cases); assay type: in vivo, human
# Protocol: Patient seven, suffered a stroke eighteen months prior to treatment with TPA. At the time TPA treatment was initiated, they were unable to walk without a cane, had difficulty with both their left hand and left leg and was tired and weak. They received injections of 1 ampoule containing 0.19 mg of TPA (0.125 mg/m^2) every other day for four weeks, then 0.24 mg of TPA (1.25×0.125 mg/m^2) every other day for 2 weeks, and then 0.26 mg of TPA (1.5×0.125 mg/m^2) every other day for an additional 3 weeks.
# Patient four, suffered a stroke seven years prior to beginning treatment with TPA. They received 3-4 injections of 0.19 mg of TPA (0.125 mg/m^2) per week for ten weeks for a total of 35 injections.
# HIV [5] = assay: Second clinical study of HIV+ patients: blood HIV count; assay type: in vivo; conditions: for BLOOD HIV COUNT LOG VALUE / BLOOD HIV COUNT RESULTS: one value per patient
# Protocol: Nine of the patients in Example III were given a second treatment of TPA. Of these nine, seven were asymptomatic at the beginning of the second trial. A tenth patient (patient #2a) who was symptomatic and had not previously been treated with TPA was added to the study. Each patient was administered a weight adjusted dosage of TPA (75 μg/sq m) in 200 ml of sterile saline intravenously over one hour. This dosage was given to each patient once a day for ten consecutive days followed by a rest period of ten days for three cycles and a total of 30 doses of TPA. Patients 5a, 6a, and 8a stopped taking anti-AIDS drugs one month prior to beginning the TPA treatment and beginning again one month after the third cycle. Patients 1-4-a, 7a, and 9a-10a continued taking anti-AIDS drugs throughout the treatment.
# Blood samples were taken three days prior to starting treatment, after completing the first 10 day cycle of TPA infusion and again after the last TPA infusion and CD3, CD4, CD8, WBC, RBC, HGB and platelets were measured.
# [6] = Treatment of rheumatoid arthritis (patient case); assay type: in vivo, human; conditions: multiple injections of TPA
# HIV [7] = assay type: in vivo; conditions: for HIV: antiretroviral therapy stopped, one value per patient
# Protocol: Six patients, two males and four females between the ages of 37 and 52 years of age (Patients #13-18), were treated with TPA. Four of these patients previously received TPA treatment in combination with anti-HIV drugs in the two previous clinical studies. […] All treatments were stopped three days prior to the initiation of the third clinical study and were not resumed until 60 days after completion of the TPA treatment. The resumption of the standard HIV treatments was required by local health authorities.
# as §1
# CD3, CD4 and CD8 levels in peripheral blood were quantitated prior to starting treatment, and again at 30 and 60 days using flow cytometry and the appropriate antibodies obtained from B.D. Bioscience, San Diego, Calif. Viral load was determined using conventional methods at Kuang Ann men Hospital, Beijing, China. Patients RBC, WBC, platelets and hemoglobin levels were also measured.
# [8] = Treatment of prostate hypertrophy (patient case); assay type: in vivo, human
# Protocol: as §2, with “eight,” for “two was”, “prostate hypertrophy.” for “Parkinson's disease.”, “mg/m^2)” for “mg/m^2) TPA”, “weeks. Their PSA index is now below 3.0.” for “weeks.”
# terminal lung cancer = assay: Treatment of lung cancer (patient case); assay type: in vivo, human; conditions: 35 injections, 0.19 to 0.26 mg TPA three to four times a week
# Excerpt: Patient ten was diagnosed with terminal lung cancer which was refractory to chemotherapy. The cancer metastasized into their bones leaving them unable to walk.
# [9] = Treatment of carpal tunnel syndrome (patient case); assay type: in vivo, human
# Excerpt: Patient with burning, tingling, pain and numbness in their fingers.
smiles,measurement,setting,value
"CCCCCCCCCCCCCC(=O)O[C@@H]1[C@@H](C)[C@@]2(O)[C@@H](C=C(CO)C[C@]3(O)C(=O)C(C)=C[C@@H]23)[C@@H]2C(C)(C)[C@]12OC(C)=O [TPA, 12-O-tetradecanoylphorbol-13-acetate]",PLt,[1]; Fifteen Days After TPA,1.69e+11 L⁻¹ and 2.19e+11 L⁻¹ and 4.15e+11 L⁻¹ and 1.51e+11 L⁻¹ and 2.08e+11 L⁻¹ and 2.4e+11 L⁻¹
same,RBC,[1]; Fifteen Days After TPA,4.03e+12 L⁻¹ and 3.41e+12 L⁻¹ and 3.65e+12 L⁻¹ and 2.98e+12 L⁻¹ and 3.69e+12 L⁻¹ and 3.88e+12 L⁻¹
same,Rb,[1]; Fifteen Days After TPA,114 g/L and 101 g/L and 142 g/L and 118 g/L and 141 g/L and 140 g/L
same,WBC,[1]; Fifteen Days After TPA,4.1 ×10^9/L and 5 ×10^9/L and 8.1 ×10^9/L (2×) and 6.4 ×10^9/L and 9 ×10^9/L
same,PLt,[1]; Forty Days After TPA,3.04e+11 L⁻¹ and 1.52e+11 L⁻¹ and 2.62e+11 L⁻¹ and 2.91e+11 L⁻¹ and 1.31e+11 L⁻¹ and 1.49e+11 L⁻¹
same,RBC,[1]; Forty Days After TPA,3.9e+12 L⁻¹ and 4.44e+12 L⁻¹ and 4.13e+12 L⁻¹ and 3.86e+12 L⁻¹ and 3.49e+12 L⁻¹ and 4.14e+12 L⁻¹
same,Rb,[1]; Forty Days After TPA,125 g/L and 109 g/L and 110 g/L and 124 g/L and 116 g/L and 131 g/L
same,WBC,[1]; Forty Days After TPA,4.6 ×10^9/L (2×) and 3.9 ×10^9/L (2×) and 6.2 ×10^9/L and 4.9 ×10^9/L
same,PLt,[1]; Sixty Days After TPA,2.21e+11 L⁻¹ and 2.27e+11 L⁻¹ and 2.39e+11 L⁻¹ and 2.76e+11 L⁻¹ and 1.21e+11 L⁻¹ and 2.22e+11 L⁻¹
same,RBC,[1]; Sixty Days After TPA,4.55e+12 L⁻¹ and 4.31e+12 L⁻¹ and 4.04e+12 L⁻¹ and 4.1e+12 L⁻¹ and 3.34e+12 L⁻¹ and 4.56e+12 L⁻¹
same,Rb,[1]; Sixty Days After TPA,126 g/L and 96 g/L and 99 g/L (2×) and 123 g/L and 136 g/L
same,WBC,[1]; Sixty Days After TPA,8.8e+09 L⁻¹ and 4.4e+09 L⁻¹ and 6.2e+09 L⁻¹ and 5.1e+09 L⁻¹ and 7.7e+09 L⁻¹ and 3.5e+09 L⁻¹
same,PLt,[1]; Thirty Days After Stopping TPA,2.72e+11 L⁻¹ and 1.93e+11 L⁻¹ and 2.78e+11 L⁻¹ and 2.24e+11 L⁻¹ and 1.78e+11 L⁻¹
same,RBC,[1]; Thirty Days After Stopping TPA,4.55e+12 L⁻¹ and 4.4e+12 L⁻¹ and 3.9e+12 L⁻¹ and 4.71e+12 L⁻¹ and 3.42e+12 L⁻¹
same,Rb,[1]; Thirty Days After Stopping TPA,130 g/L and 104 g/L and 110 g/L and 144 g/L and 100 g/L
same,WBC,[1]; Thirty Days After Stopping TPA,7.5e+09 L⁻¹ and 6.5e+09 L⁻¹ and 8.4e+09 L⁻¹ and 3.8e+09 L⁻¹ and 4.8e+09 L⁻¹
same,PLt,[1]; Thirty Days After TPA,2.32e+11 L⁻¹ and 2.47e+11 L⁻¹ and 3.45e+11 L⁻¹ and 1.77e+11 L⁻¹ and 2.28e+11 L⁻¹ and 2.75e+11 L⁻¹
same,RBC,[1]; Thirty Days After TPA,4.48e+12 L⁻¹ and 3.83e+12 L⁻¹ and 4.03e+12 L⁻¹ and 3.2e+12 L⁻¹ and 4.32e+12 L⁻¹ and 4.35e+12 L⁻¹
same,Rb,[1]; Thirty Days After TPA,116 g/L and 113 g/L and 145 g/L and 121 g/L and 154 g/L and 148 g/L
same,WBC,[1]; Thirty Days After TPA,5.9e+09 L⁻¹ and 5.2e+09 L⁻¹ and 4.3e+09 L⁻¹ and 4e+09 L⁻¹ and 4.5e+09 L⁻¹ and 8.9e+09 L⁻¹
same,tremors,[2],no longer displaying tremors
same,urinary frequency,[3]; nine injections of 0.18 mg of TPA,regained normal urinary frequency
same,urinary frequency,[3]; six injections of 0.18 mg of TPA,regained normal urinary frequency
same,recovery after stroke,"[4]; stroke eighteen months before, 0.19, 0.24, 0.26 mg TPA every other day over 9 weeks",recovered fully
same,mobility in their face,"[4]; stroke seven years before, 35 injections of 0.19 mg TPA",regained mobility in their face
same,improvement in the mobility of their right side,"[4]; stroke seven years before, 35 injections of 0.19 mg TPA in ten weeks",80%
same,BLOOD HIV COUNT LOG VALUE,HIV [5]; after first cycle TPA infusion,5.490 and 2.371 and 4.825 and 5.217 and 5.450 and 5.475
same,BLOOD HIV COUNT RESULTS,HIV [5]; after first cycle TPA infusion,3.09 × 10^5 copies/ml and lower the 500 copies/ml and undetectable (4×) and 6.68 × 10^4 copies/ml and 1.65 × 10^5 copies/ml and 2.82 × 10^5 copies/ml and 2.99 × 10^5 copies/ml
same,BLOOD HIV COUNT LOG VALUE,HIV [5]; after third cycle TPA infusion,5.966 and 3.980 and 3.376 and 4.792 and 5.371 and 5.270 and 5.973
same,BLOOD HIV COUNT RESULTS,HIV [5]; after third cycle TPA infusion,9.24 × 10^5 copies/ml and 9.55 × 10^3 copies/ml and 2.38 × 10^3 copies/ml and undetectable (3×) and 6.20 × 10^4 copies/ml and 2.35 × 10^5 copies/ml and 1.86 × 10^5 copies/ml and 9.41 × 10^5 copies/ml
same,viral load of HIV (summary),HIV [5]; ten patients,undetectable in three patients (<200); it increased somewhat in six others and was reduced in one
same,joint stiffness and hand function,[6],reduction in stiffness in the joints and an increase in functionality in their hands
same,HIV,HIV [7]; Sixty Days After TPA,0.038 copies/ml (All Figures in Mill and Undetectable (2×) and 0.012 copies/ml (All Figures in Mill and 0.056 copies/ml (All Figures in Mill and 0.133 copies/ml (All Figures in Mill
same,HIV,HIV [7]; Thirty Days After TPA,0.353 copies/ml (All Figures in Mill and 1.99 copies/ml (All Figures in Mill and 1.28 copies/ml (All Figures in Mill and 0.152 copies/ml (All Figures in Mill and 0.174 copies/ml (All Figures in Mill and 0.533 copies/ml (All Figures in Mill
same,viral load rebound after discontinuation of antiretroviral therapy,"HIV [7]; six patients, 150 μg TPA daily for 60 days",no rebound in viral levels; also recorded: no viral load rebound
same,PSA index,"[8]; 0.19, 0.24, 0.26 mg TPA every other day over 9 weeks",below 3.0
same,appearance,[8]; same patient,developed a more youthful appearance
same,"outcome, terminal lung cancer metastasized into bones",terminal lung cancer,in remission and able to walk normally
same,use of hands,[9],regained full use of their hands
